Assay results: patent publication US20130017537A1, “METHOD OF IN-VITRO IMMUNOASSAY” (BASF Beauty Care Solutions France S.A.S., priority 2011, published 2013)
“And” between values parts separate entries of the source, which are not always exact repeats. Equal entries are not always repeated.

Columns and labels:
[1] = tested on: type V collagen in the ECM; assay: Influence of the lysis solution on the assay of type V collagen in the ECM; assay type: cell-based, human; settings: repeat experiment, Table 3.2
Procedure: Thus, normal human fibroblasts obtained from abdominal biopsies were seeded in a 96-well plate and cultured in a defined medium (FGM) to 100% confluency.
After 48 hours of culture postconfluency at 37° C. under 0.5% CO2, the culture medium was collected.
The time of application of the lysis solution tested was 10 minutes at room temperature and with stirring.
The collagen V in the ECM was assayed directly on the ECM by using an anticollagen V antibody. A secondary antibody conjugated to europium was used with a detection reagent and the fluorescence was measured. (Delfia® kit—Perkin Elmer).
The experiment was repeated and the lysis solutions tested were as follows: • solution according to the invention NH4OH: 110 μl of an ammonium hydroxide solution at concentrations between 200 μM and 2 M. • Solution of monoethylamine at 20 Mm • Solution of diethylamine at 20 mM • Solution of triethylamine at 20 mM

[2] = tested on: extracellular procollagen; assay: Procollagen ELISA (PIPc kit) on collected culture medium; assay type: cell-based, human
Procedure: The method described in example 1 was applied and the culture medium and lysis medium collected were analysed. On the collected culture medium, a procollagen assay was carried out (PIPc kit, TAKARA) by ELISA for determining the amount of extracellular procollagen (Table 4.1) The amounts of collagen and procollagen measured were rationalized to the amount of DNA present in each well. In experiment 6, procollagen was assayed in the culture medium collected in step b) in accordance with the method described in example 4.

[3] = tested on: intracellular procollagen; assay: Procollagen ELISA (PIPc kit) on collected lysis medium; assay type: cell-based, human; settings: for Procoll Mean (intracellular procollagen) / Ratio: Procoll/DNA Mean / Stat Mean (Procoll/DNA, control = 100.00): lysis medium
Procedure: The method described in example 1 was applied and the culture medium and lysis medium collected were analysed. On the collected lysis medium, a procollagen assay (PIPc kit, TAKARA) by ELISA is carried out for determining the amount of intracellular procollagen (Table 4.2). A DNA assay (Picogreen kit, Invitrogen) was also carried out for rationalizing all of the measurements in each well to the quantity of viable cells. The amounts of collagen and procollagen measured were rationalized to the amount of DNA present in each well.

[4] = tested on: type V collagen in the ECM; assay: Assay of type V collagen in the ECM (anticollagen V antibody, europium TRF, Delfia) after NH4OH lysis of fibroblasts; assay type: cell-based, human; settings: for Coll V (RFU) Mean: 48 hours, donor; for Versus control Mean (Coll V): control = 100.00
Procedure: A lysis step was carried out: 110 μl of an ammonium hydroxide solution at 20 mM for 10 minutes at room temperature and with stirring. The collagen V in the ECM was assayed directly on the ECM by using an anticollagen V antibody. A secondary antibody conjugated to europium was used with a detection reagent and the fluorescence was measured. (Delfia® kit—Perkin Elmer). The experiment was carried out according to the protocol described in example 1 with fibroblasts extracted from a biopsy from a donor.

[5] = tested on: type I collagen in the ECM; assay: Assay of type I collagen in the ECM (anticollagen I antibody, europium TRF, Delfia) after NH4OH lysis of fibroblasts; assay type: cell-based, human; parameters: key to Coll I Mean: europium fluorescence normalized to measured dsDNA; settings: for Coll I (RFU) Mean: 48 hours, donor; for Versus control Mean (Coll I): control = 100.00; for Coll I Mean / Ratio: Coll I/DNA Mean / Stat Mean (Coll I/DNA, control = 100.00): ECM
Procedure: After 48 hours of culture postconfluency, the culture medium was removed and discarded. A lysis step was carried out: 110 μl of an ammonium hydroxide solution at 20 mM for 10 minutes at room temperature and with stirring. The lysate was collected and analysed. The double-stranded DNA contained in the lysate was assayed by using the bisbenzimide method (Picogreen Kit, Invitrogen). The collagen in the ECM was assayed directly on the ECM by using an anticollagen I antibody. A secondary antibody conjugated to europium was used with a detection reagent and the fluorescence was measured. (Delfia® kit—Perkin Elmer). The fluorescence results were rationalized relative to the measured dsDNA rate. The experiment was carried out according to the protocol described in example 1 with fibroblasts extracted from a biopsy from a donor. […] The experiment was carried out according to the protocol described in example 1 with fibroblasts extracted from a biopsy of a donor.

[6] = tested on: collagen I; assay: Immunohistochemical analysis of collagen I (confocal fluorescence); assay type: cell-based, human; settings: 50 μM; 72 h
Procedure: After 72 h culture postconfluency, the culture medium was removed and immunolabelling was performed. The polyclonal anti-collagen I primary antibody was applied, then after removal of the medium the secondary antibody conjugated to a fluorochrome alexa 488 is added. The fluorescence was examined under the LSM700 confocal microscope.

[7] = tested on: normal human fibroblasts; assay: Double-stranded DNA assay in the cell lysate (bisbenzimide, Picogreen) for quantity of viable cells; assay type: cell-based; parameters: unit not given here
Procedure: The lysate was collected and analysed. The double-stranded DNA contained in the lysate was assayed by using the bisbenzimide method (Picogreen Kit, Invitrogen). On the collected lysis medium, a procollagen assay (PIPc kit, TAKARA) by ELISA is carried out for determining the amount of intracellular procollagen (Table 4.2). A DNA assay (Picogreen kit, Invitrogen) was also carried out for rationalizing all of the measurements in each well to the quantity of viable cells.

[8] = ascorbic acid 0.1 μM, Example 4
[9] = ascorbic acid 100 μM, Example 5
[10] = ascorbic acid 100 μM, Example 4

SMILES: CCN(CC)CC [Triethylamine, triethylamine]
- Ratio: Coll/DNA % (NH4OH = 100) [1]: 21.13%

SMILES: CCNCC [Diethylamine, diethylamine]
- Ratio: Coll/DNA % (NH4OH = 100) [1]: 17.33%

SMILES: O=C1O[C@H]([C@@H](O)CO)C(O)=C1O [Ascorbic acid, ascorbic acid]
- Procoll (ng/ml) Mean ([2]; 50 μM, Example 7): 1983 ng/mL
- Ratio: Procoll/DNA Mean ([2]; 50 μM, Example 7): 4.01
- Versus control Mean (ProColl/DNA) ([2]; 50 μM, Example 7, control = 100): 171.17
- Procoll Mean (extracellular procollagen) ([2]; ascorbic acid 0.1 μM): 1987 ng/mL
- Ratio: Procoll/DNA Mean ([2]; ascorbic acid 0.1 μM): 6.26
- Stat Mean (Procoll/DNA, control = 100.00) ([2]; ascorbic acid 0.1 μM): 100.75
- Procoll Mean (extracellular procollagen) ([2]; ascorbic acid 1 μM): 1983 ng/mL
- Ratio: Procoll/DNA Mean ([2]; ascorbic acid 1 μM): 6.57
- Stat Mean (Procoll/DNA, control = 100.00) ([2]; ascorbic acid 1 μM): 105.74
- Procoll Mean (extracellular procollagen) ([2]; ascorbic acid 10 μM): 2756 ng/mL
- Ratio: Procoll/DNA Mean ([2]; ascorbic acid 10 μM): 9.83
- Stat Mean (Procoll/DNA, control = 100.00) ([2]; ascorbic acid 10 μM): 158.16
- Procoll Mean (extracellular procollagen) ([2]; ascorbic acid 50 μM): 2852 ng/mL
- Ratio: Procoll/DNA Mean ([2]; ascorbic acid 50 μM): 10.25
- Stat Mean (Procoll/DNA, control = 100.00) ([2]; ascorbic acid 50 μM): 164.89
- Procoll Mean (extracellular procollagen) ([2]; ascorbic acid 100 μM): 2845 ng/mL
- Ratio: Procoll/DNA Mean ([2]; ascorbic acid 100 μM): 9.78
- Stat Mean (Procoll/DNA, control = 100.00) ([2]; ascorbic acid 100 μM): 157.30
- procollagen concentration in the intracellular compartment ([3]; Example 4): less than that observed with the untreated control
- Procoll Mean (intracellular procollagen) ([3]; ascorbic acid 0.1 μM): 116 ng/mL
- Ratio: Procoll/DNA Mean ([3]; ascorbic acid 0.1 μM): 0.37
- Stat Mean (Procoll/DNA, control = 100.00) ([3]; ascorbic acid 0.1 μM): 102.85
- Procoll Mean (intracellular procollagen) ([3]; ascorbic acid 1 μM): 108 ng/mL
- Ratio: Procoll/DNA Mean ([3]; ascorbic acid 1 μM): 0.36
- Stat Mean (Procoll/DNA, control = 100.00) ([3]; ascorbic acid 1 μM): 100.76
- Procoll Mean (intracellular procollagen) ([3]; ascorbic acid 10 μM): 114 ng/mL
- Ratio: Procoll/DNA Mean ([3]; ascorbic acid 10 μM): 0.41
- Stat Mean (Procoll/DNA, control = 100.00) ([3]; ascorbic acid 10 μM): 108.02
- Procoll Mean (intracellular procollagen) ([3]; ascorbic acid 50 μM): 60 ng/mL
- Ratio: Procoll/DNA Mean ([3]; ascorbic acid 50 μM): 0.22
- Stat Mean (Procoll/DNA, control = 100.00) ([3]; ascorbic acid 50 μM): 60.83
- Procoll Mean (intracellular procollagen) ([3]; ascorbic acid 100 μM): 66 ng/mL
- Ratio: Procoll/DNA Mean ([3]; ascorbic acid 100 μM): 0.23
- Stat Mean (Procoll/DNA, control = 100.00) ([3]; ascorbic acid 100 μM): 63.69
- Ratio: Coll/DNA Mean (Coll V) ([4]; ascorbic acid 5 μM): 59.83
- Coll V (RFU) Mean ([4]; ascorbic acid 5 μM): 12644 RFU
- Versus control Mean (Coll V) ([4]; ascorbic acid 5 μM): 117.16
- Ratio: Coll/DNA Mean (Coll V) ([4]; ascorbic acid 10 μM): 58.76
- Coll V (RFU) Mean ([4]; ascorbic acid 10 μM): 14127 RFU
- Versus control Mean (Coll V) ([4]; ascorbic acid 10 μM): 115.06
- Ratio: Coll/DNA Mean (Coll V) ([4]; ascorbic acid 25 μM): 68.69
- Coll V (RFU) Mean ([4]; ascorbic acid 25 μM): 16172 RFU
- Versus control Mean (Coll V) ([4]; ascorbic acid 25 μM): 134.49
- Ratio: Coll/DNA Mean (Coll V) ([4]; ascorbic acid 50 μM): 68.86
- Coll V (RFU) Mean ([4]; ascorbic acid 50 μM): 16230 RFU
- Versus control Mean (Coll V) ([4]; ascorbic acid 50 μM): 134.82
- Ratio: Coll/DNA Mean (Coll V) ([4]; ascorbic acid 100 μM): 73.12
- Coll V (RFU) Mean ([4]; ascorbic acid 100 μM): 17994 RFU
- Versus control Mean (Coll V) ([4]; ascorbic acid 100 μM): 143.17
- Coll I (RFU) Mean ([5]; 50 μM, Example 6): 169132 RFU
- Ratio: Coll/DNA Mean (Coll I) ([5]; 50 μM, Example 6): 340.49
- Versus control Mean (Coll I) ([5]; 50 μM, Example 6): 119.53
- effect of stimulation on the content of collagen I in the ECM (dose dependence) ([5]; Example 4, 0.1 to 100 μM): dose-dependent up to 50 μM
- optimum dose for efficacy, collagen I assay ([5]; Example 5, 5 to 100 μM tested): 50 µM
- stimulation of the synthesis of collagen I and V ([5]; Example 5, collagen I and V in the ECM): induces stimulation of the synthesis of collagen I and V with a significant dose effect
- amount of collagen I in the ECM ([5]; Example 6, ascorbic acid at 50 μM, vegetable extract 1% (v/v)): significant increase
- Coll I Mean [5, 8]: 74156
- Ratio: Coll I/DNA Mean [5, 8]: 233.65
- Stat Mean (Coll I/DNA, control = 100.00) [5, 8]: 105.33
- Coll I Mean ([5]; ascorbic acid 1 μM, Example 4): 74419
- Ratio: Coll I/DNA Mean ([5]; ascorbic acid 1 μM, Example 4): 246.46
- Stat Mean (Coll I/DNA, control = 100.00) ([5]; ascorbic acid 1 μM, Example 4): 111.10
- Coll I (RFU) Mean ([5]; ascorbic acid 5 μM, Example 5): 59802 RFU
- Ratio: Coll/DNA Mean (Coll I) ([5]; ascorbic acid 5 μM, Example 5): 273.40
- Versus control Mean (Coll I) ([5]; ascorbic acid 5 μM, Example 5): 125.69
- Coll I (RFU) Mean ([5]; ascorbic acid 10 μM, Example 5): 59569 RFU
- Coll I Mean ([5]; ascorbic acid 10 μM, Example 4): 78694
- Ratio: Coll I/DNA Mean ([5]; ascorbic acid 10 μM, Example 4): 280.82
- Stat Mean (Coll I/DNA, control = 100.00) ([5]; ascorbic acid 10 μM, Example 4): 126.59
- Ratio: Coll/DNA Mean (Coll I) ([5]; ascorbic acid 10 μM, Example 5): 239.53
- Versus control Mean (Coll I) ([5]; ascorbic acid 10 μM, Example 5): 110.12
- Coll I (RFU) Mean ([5]; ascorbic acid 25 μM, Example 5): 59088 RFU
- Ratio: Coll/DNA Mean (Coll I) ([5]; ascorbic acid 25 μM, Example 5): 254.84
- Versus control Mean (Coll I) ([5]; ascorbic acid 25 μM, Example 5): 117.16
- Coll I (RFU) Mean ([5]; ascorbic acid 50 μM, Example 5): 54454 RFU
- Coll I Mean ([5]; ascorbic acid 50 μM, Example 4): 79146
- Ratio: Coll I/DNA Mean ([5]; ascorbic acid 50 μM, Example 4): 284.31
- Stat Mean (Coll I/DNA, control = 100.00) ([5]; ascorbic acid 50 μM, Example 4): 128.17
- Ratio: Coll/DNA Mean (Coll I) ([5]; ascorbic acid 50 μM, Example 5): 309.87
- Versus control Mean (Coll I) ([5]; ascorbic acid 50 μM, Example 5): 130.66
- Coll I (RFU) Mean [5, 9]: 50765 RFU
- Coll I Mean [5, 10]: 79796
- Ratio: Coll I/DNA Mean [5, 10]: 273.96
- Stat Mean (Coll I/DNA, control = 100.00) [5, 10]: 123.50
- Ratio: Coll/DNA Mean (Coll I) [5, 9]: 249.31
- Versus control Mean (Coll I) [5, 9]: 114.62
- Area/cells % (control = 100) [6]: 114.96%
- Area/cells Mean (collagen I fluorescence) [6]: 124238.13
- DNA Mean ([7]; 50 μM, Example 6 and 7): 497.4 and 497.3
- DNA Mean [7, 8]: 318
- DNA Mean ([7]; ascorbic acid 1 μM, Example 4): 303
- DNA Mean ([7]; ascorbic acid 5 μM, Table 5.3): 220
- DNA Mean ([7]; ascorbic acid 5 μM, Table 5.4): 212
- DNA Mean ([7]; ascorbic acid 10 μM, Example 4): 281
- DNA Mean ([7]; ascorbic acid 10 μM, Table 5.3): 249
- DNA Mean ([7]; ascorbic acid 10 μM, Table 5.4): 241
- DNA Mean ([7]; ascorbic acid 25 μM, Table 5.3): 232
- DNA Mean ([7]; ascorbic acid 25 μM, Table 5.4): 236
- DNA Mean ([7]; ascorbic acid 50 μM, Example 4): 279
- DNA Mean ([7]; ascorbic acid 50 μM, Table 5.3): 180
- DNA Mean ([7]; ascorbic acid 50 μM, Table 5.4): 236
- DNA Mean [7, 10]: 291
- DNA Mean ([7]; ascorbic acid 100 μM, Table 5.3): 204
- DNA Mean ([7]; ascorbic acid 100 μM, Table 5.4): 246
